Columns and labels:
[1] = biological target: 5-hydroxytryptamine receptor 6 (Homo sapiens, UniProt P50406); type: cell membranes, HeLa, Membrane; settings: hela; also: in other assays of this panel Not Active means under 50% inhibition at 10 µM
[2] = biological target: T1, Substance-K receptor (Homo sapiens, UniProt P21452); type: cell membranes, CHO, Membrane; settings: cho; also: in other assays of this panel Not Active means under 50% inhibition at 10 µM
T1 sequence (P21452 whole entry): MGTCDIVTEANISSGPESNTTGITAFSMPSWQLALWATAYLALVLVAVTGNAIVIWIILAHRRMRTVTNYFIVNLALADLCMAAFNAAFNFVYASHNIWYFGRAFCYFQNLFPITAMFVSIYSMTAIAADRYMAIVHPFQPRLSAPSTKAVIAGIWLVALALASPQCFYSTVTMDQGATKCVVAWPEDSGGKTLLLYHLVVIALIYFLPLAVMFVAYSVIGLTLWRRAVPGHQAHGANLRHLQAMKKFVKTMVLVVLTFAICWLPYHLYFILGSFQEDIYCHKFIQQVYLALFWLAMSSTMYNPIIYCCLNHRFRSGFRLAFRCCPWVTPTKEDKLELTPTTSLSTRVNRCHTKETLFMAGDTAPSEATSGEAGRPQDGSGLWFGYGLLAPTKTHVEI

[3] = biological target: Cannabinoid receptor 1 (Homo sapiens, UniProt P21554); type: cell membranes, Membrane; settings: chem-1; also: in other assays of this panel Not Active means under 50% inhibition at 10 µM
Sequence of Cannabinoid receptor 1 (P21554 whole entry): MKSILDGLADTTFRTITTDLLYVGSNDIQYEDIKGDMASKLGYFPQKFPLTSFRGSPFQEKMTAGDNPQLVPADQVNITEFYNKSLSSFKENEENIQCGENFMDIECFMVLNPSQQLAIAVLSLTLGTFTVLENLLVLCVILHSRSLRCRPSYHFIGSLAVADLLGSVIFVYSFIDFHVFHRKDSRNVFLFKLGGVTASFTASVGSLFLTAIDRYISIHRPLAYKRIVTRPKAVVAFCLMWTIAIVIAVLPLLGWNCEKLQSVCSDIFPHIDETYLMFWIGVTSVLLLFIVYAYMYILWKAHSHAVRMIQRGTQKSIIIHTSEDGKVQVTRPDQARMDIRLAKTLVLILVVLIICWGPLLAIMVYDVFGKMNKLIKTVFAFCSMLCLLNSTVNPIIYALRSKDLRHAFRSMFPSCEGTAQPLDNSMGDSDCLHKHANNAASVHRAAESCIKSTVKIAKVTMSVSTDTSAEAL

[4] = biological target: Kappa-type opioid receptor (Homo sapiens, UniProt P41145); experiment: DRUGMATRIX: Opiate kappa (OP2, KOP) radioligand binding (ligand: [3H] Diprenorphine); type: cell membranes, HEK293, Membrane; settings: hek293; Not Active = under 50% inhibition at 10 µM
Sequence of Kappa-type opioid receptor (P41145 whole entry): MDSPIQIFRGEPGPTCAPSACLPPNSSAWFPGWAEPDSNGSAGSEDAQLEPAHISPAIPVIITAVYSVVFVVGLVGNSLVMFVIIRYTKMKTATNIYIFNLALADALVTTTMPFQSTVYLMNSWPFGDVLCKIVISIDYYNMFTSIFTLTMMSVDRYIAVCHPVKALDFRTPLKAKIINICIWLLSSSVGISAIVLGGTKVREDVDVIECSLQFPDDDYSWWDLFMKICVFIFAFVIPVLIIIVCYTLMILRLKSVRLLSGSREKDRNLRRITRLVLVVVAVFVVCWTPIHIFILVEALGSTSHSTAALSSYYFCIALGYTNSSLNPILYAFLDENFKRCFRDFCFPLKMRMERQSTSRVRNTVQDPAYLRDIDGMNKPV

[5] = biological target: Mitogen-activated protein kinase 1 (Homo sapiens, UniProt P28482); experiment: DRUGMATRIX: Protein Serine/Threonine Kinase, ERK2 enzyme inhibition (substrate: Myelin Basic Protein); set-up: species or system Escherichia coli; settings: Not Active = under 50% inhibition at 10 µM
Sequence of Mitogen-activated protein kinase 1 (P28482 whole entry): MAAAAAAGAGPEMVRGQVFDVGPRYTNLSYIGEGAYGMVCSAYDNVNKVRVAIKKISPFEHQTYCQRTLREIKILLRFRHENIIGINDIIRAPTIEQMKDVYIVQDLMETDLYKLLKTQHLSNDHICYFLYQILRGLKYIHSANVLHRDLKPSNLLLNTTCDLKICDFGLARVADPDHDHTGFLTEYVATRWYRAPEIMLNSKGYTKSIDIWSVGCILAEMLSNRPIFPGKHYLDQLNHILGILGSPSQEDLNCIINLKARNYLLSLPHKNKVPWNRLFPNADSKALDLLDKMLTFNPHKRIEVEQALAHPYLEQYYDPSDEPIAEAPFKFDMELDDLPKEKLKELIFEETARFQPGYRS

[6] = biological target: Epidermal growth factor receptor (Homo sapiens, UniProt P00533); experiment: DRUGMATRIX: Protein Tyrosine Kinase, EGF Receptor enzyme inhibition (substrate: Poly(Glu:Tyr)); type: cell-based, Insect cells; settings: insect cells; Not Active = under 50% inhibition at 10 µM
Sequence of Epidermal growth factor receptor (P00533 whole entry): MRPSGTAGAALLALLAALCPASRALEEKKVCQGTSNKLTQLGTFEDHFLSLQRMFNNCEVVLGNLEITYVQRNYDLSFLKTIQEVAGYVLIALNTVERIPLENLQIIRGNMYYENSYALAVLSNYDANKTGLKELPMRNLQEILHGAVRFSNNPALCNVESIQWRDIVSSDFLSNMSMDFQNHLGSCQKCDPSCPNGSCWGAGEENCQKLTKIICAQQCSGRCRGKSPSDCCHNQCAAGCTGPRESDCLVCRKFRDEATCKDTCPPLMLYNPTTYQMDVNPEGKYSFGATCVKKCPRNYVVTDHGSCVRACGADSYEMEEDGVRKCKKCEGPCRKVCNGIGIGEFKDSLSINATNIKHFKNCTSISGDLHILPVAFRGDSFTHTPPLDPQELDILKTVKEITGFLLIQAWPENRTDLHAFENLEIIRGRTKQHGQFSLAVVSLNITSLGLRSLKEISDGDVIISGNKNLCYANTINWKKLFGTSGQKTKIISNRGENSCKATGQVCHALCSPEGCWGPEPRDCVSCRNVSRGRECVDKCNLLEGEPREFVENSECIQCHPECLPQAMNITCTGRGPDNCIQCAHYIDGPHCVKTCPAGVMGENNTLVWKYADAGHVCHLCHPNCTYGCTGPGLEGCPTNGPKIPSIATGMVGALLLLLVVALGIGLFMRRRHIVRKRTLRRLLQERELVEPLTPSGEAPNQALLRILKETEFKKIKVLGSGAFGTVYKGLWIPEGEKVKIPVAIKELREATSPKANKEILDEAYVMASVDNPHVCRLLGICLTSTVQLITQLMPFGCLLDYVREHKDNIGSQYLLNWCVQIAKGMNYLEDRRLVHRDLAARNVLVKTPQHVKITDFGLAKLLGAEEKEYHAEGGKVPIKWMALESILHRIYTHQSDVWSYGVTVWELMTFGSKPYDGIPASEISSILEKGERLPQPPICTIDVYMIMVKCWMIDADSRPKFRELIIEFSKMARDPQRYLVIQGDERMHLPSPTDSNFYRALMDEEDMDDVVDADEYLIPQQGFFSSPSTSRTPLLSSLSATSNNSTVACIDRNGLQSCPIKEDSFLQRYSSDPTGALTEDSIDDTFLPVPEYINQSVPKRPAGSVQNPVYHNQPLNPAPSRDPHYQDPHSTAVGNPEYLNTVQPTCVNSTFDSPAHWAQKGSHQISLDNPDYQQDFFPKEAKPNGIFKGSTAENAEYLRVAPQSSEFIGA

Measured: IC50

Sequence of 5-hydroxytryptamine receptor 6 (P50406 whole entry): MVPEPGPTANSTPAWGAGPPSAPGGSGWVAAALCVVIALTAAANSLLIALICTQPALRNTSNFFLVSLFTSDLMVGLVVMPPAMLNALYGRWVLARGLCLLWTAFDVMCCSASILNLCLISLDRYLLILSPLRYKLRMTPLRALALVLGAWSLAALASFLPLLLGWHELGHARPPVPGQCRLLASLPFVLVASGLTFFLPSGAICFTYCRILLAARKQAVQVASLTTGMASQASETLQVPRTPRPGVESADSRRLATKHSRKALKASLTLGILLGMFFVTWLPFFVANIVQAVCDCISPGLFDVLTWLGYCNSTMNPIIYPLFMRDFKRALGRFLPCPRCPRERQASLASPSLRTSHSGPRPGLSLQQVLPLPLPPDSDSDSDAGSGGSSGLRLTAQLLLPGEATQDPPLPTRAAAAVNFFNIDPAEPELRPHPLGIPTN

CC[C@]1(O)C[C@H]2CN(CCc3c([nH]c4ccccc34)[C@@](C(=O)OC)(c3cc4c(cc3OC)N(C=O)[C@H]3[C@@](O)(C(=O)OC)[C@H](OC(C)=O)[C@]5(CC)C=CCN6CC[C@]43[C@@H]65)C2)C1 [VINCRISTINE]
Not Active: [1] | [2] | [3] | [4] | [5] | [6]

CCCOc1ccccc1-c1nc2nn[nH]c2c(=O)[nH]1 [ZAPRINAST]
Not Active: [1] | [2] | [3] | [4] | [5] | [6]

Reference: ChEMBL document CHEMBL1909046, “DrugMatrix in vitro pharmacology data”
